Results from patent EP3277384B1, “SOLID ORAL CARE COMPOSITIONS” (Unilever IP Holdings B.V., priority 2015, dated 2016).

Test: Approximate solubility of zinc salts
Details: at 25C

## Zinc oxide
  Approximate Solubility: 5 µg/mL
